Assay results published in ChEMBL document CHEMBL2390896, “Synthesis, enzymatic stability and in vitro cytostatic effect of Daunorubicin-GnRH-III derivative dimers” (Bioorg Med Chem Lett, 2013).

Key:
[1] = Prodrug conversion in rat liver lysosomal homogenate assessed as H-Lys(Dau=Aoa-Cys)-OH formation at 0.1 ug/uL after 24 hrs by LC-MS analysis; format: ADME, tissue-based
[2] = system: MCF7; assay: Cytostatic activity against human MCF7 cells after 72 hrs by MTT assay; format: functional, cell-based; conditions: MCF7, 72 h
[3] = Prodrug conversion in rat liver lysosomal homogenate assessed as free daunorubicin at 0.1 ug/uL after 24 hrs by LC-MS analysis; format: ADME, tissue-based
[4] = Proteolytic stability in Tris-HCl/CaCl2 buffer at pH 7.8 in presence of alpha-chymotrypsin assessed as cleavage of compound at -3Trp-4Xxx- in one arm of dimer at 0.1 ug/uL measured after 1 hr by mass spectrometry; format: ADME; conditions: pH 7.8, 1 h
[5] = Proteolytic stability in Tris-HCl/CaCl2 buffer at pH 7.8 in presence of alpha-chymotrypsin assessed as intact parent compound at 0.1 ug/uL measured after 24 hrs by mass spectrometry; format: ADME; conditions: pH 7.8, 24 h
[6] = system: Serum; assay: Metabolic stability in human serum at 10 uM after 24 hrs by LC-MS analysis; format: ADME, cell-free
[7] = Proteolytic stability in 0.1 % formic acid at pH 1.8 in presence of pepsin after 24 hrs by mass spectrometry; format: ADME; conditions: isolated protein, pH 1.8, 24 h
[8] = Proteolytic stability in NH4HCO3 buffer at pH 8.0 in presence of trypsin at 0.1 ug/uL after 24 hrs by mass spectrometry; format: ADME; conditions: isolated protein, pH 8, 24 h
[9] = Proteolytic stability in Tris-HCl/CaCl2 buffer at pH 7.8 in presence of alpha-chymotrypsin assessed as cleavage of compound at -3Trp-4Xxx- in second arm of dimer at 0.1 ug/uL after 24 hrs by mass spectrometry; format: ADME; conditions: pH 7.8, 24 h
[10] = Chemical stability of the compound in aqueous solution after 24 hrs by LC-MS analysis; format: physicochemical; conditions: buffer
[11] = Proteolytic stability in Tris-HCl/CaCl2 buffer at pH 7.8 in presence of alpha-chymotrypsin assessed as cleavage of compound at -3Trp-4Xxx- in second arm of dimer at 0.1 ug/uL after 4 hrs by mass spectrometry; format: ADME; conditions: pH 7.8, 4 h
[12] = Prodrug conversion in rat liver lysosomal homogenate assessed as {[H-Lys(Dau=Aoa-Cys)-OH] [H-Lys(Dau=Aoa-Cys)P-OH]} formation at 0.1 ug/uL after 24 hrs by LC-MS analysis; format: ADME, tissue-based
[13] = Proteolytic stability in Tris-HCl/CaCl2 buffer at pH 7.8 in presence of alpha-chymotrypsin assessed as compound degradation at 0.1 ug/uL after 6 hrs by mass spectrometry; format: ADME; conditions: pH 7.8, 6 h
[14] = Drug metabolism in rat liver lysosomal homogenate assessed as [H-Lys(Dau=Aoa-Cys)-OH]2 formation at 0.1 ug/uL after 24 hrs by LC-MS analysis; format: ADME, tissue-based; conditions: tissue homogenate

Row | Drug metabolism [1] | IC50 [2] [µM] | Drug metabolism [3] | Stability [4] | Stability [5] | Stability [6] | Stability [7] | Stability [8] | Stability [9] | Stability [10] | Stability [11] | Drug metabolism [12] | Stability [13] | Drug metabolism [14] | Structure (SMILES)
1 | Active | 10.6 | – | – | – | – | – | – | – | – | – | – | – | – | COc1cccc2c1C(=O)c1c(O)c3c(c(O)c1C2=O)C[C@@](O)(/C(C)=N/OCC(=O)NCCCC[C@H](NC(=O)[C@H](Cc1c[nH]c2ccccc12)NC(=O)[C@H](CC(=O)O)NC(=O)[C@H](Cc1cnc[nH]1)NC(=O)[C@H](CO)N(C)C(=O)[C@H](Cc1c[nH]c2ccccc12)NC(=O)[C@H](Cc1cnc[nH]1)NC(=O)[C@@H]1CCC(=O)N1)C(=O)N1CCC[C@H]1C(=O)NCC(N)=O)C[C@@H]3O[C@H]1C[C@H](N)[C@H](O)[C@H](C)O1
2 | – | 4.1 | Not Active | Unstable | Stable | Stable | Stable | Stable | Stable | Stable | Stable | Active | Unstable | – | COc1cccc2c1C(=O)c1c(O)c3c(c(O)c1C2=O)C[C@@](O)(/C(C)=N/OCC(=O)N[C@@H](CSSC[C@H](NC(=O)CO/N=C(\C)[C@]1(O)Cc2c(O)c4c(c(O)c2[C@@H](O[C@H]2C[C@H](N)[C@H](O)[C@H](C)O2)C1)C(=O)c1c(OC)cccc1C4=O)C(=O)NCCCC[C@H](NC(=O)[C@H](Cc1c[nH]c2ccccc12)NC(=O)[C@H](CC(=O)O)NC(=O)[C@H](Cc1cnc[nH]1)NC(=O)[C@H](CO)NC(=O)[C@H](Cc1c[nH]c2ccccc12)NC(=O)[C@H](Cc1cnc[nH]1)NC(=O)[C@@H]1CCC(=O)N1)C(=O)N1CCC[C@H]1C(=O)NCC(N)=O)C(=O)NCCCC[C@H](NC(=O)[C@H](Cc1c[nH]c2ccccc12)NC(=O)[C@H](CC(=O)O)NC(=O)[C@H](Cc1cnc[nH]1)NC(=O)[C@H](CO)NC(=O)[C@H](Cc1c[nH]c2ccccc12)NC(=O)[C@H](Cc1cnc[nH]1)NC(=O)[C@@H]1CCC(=O)N1)C(=O)N1CCC[C@H]1C(=O)NCC(N)=O)C[C@@H]3O[C@H]1C[C@H](N)[C@H](O)[C@H](C)O1
3 | – | 6.2 | – | Unstable | Stable | Stable | Stable | Stable | Stable | Stable | Stable | – | Unstable | Active | COc1cccc2c1C(=O)c1c(O)c3c(c(O)c1C2=O)C[C@@](O)(/C(C)=N/OCC(=O)N[C@@H](CSSC[C@H](NC(=O)CO/N=C(\C)[C@]1(O)Cc2c(O)c4c(c(O)c2[C@@H](O[C@H]2C[C@H](N)[C@H](O)[C@H](C)O2)C1)C(=O)c1c(OC)cccc1C4=O)C(=O)NCCCC[C@H](NC(=O)[C@H](Cc1c[nH]c2ccccc12)NC(=O)[C@H](CC(=O)O)NC(=O)[C@H](Cc1cnc[nH]1)NC(=O)[C@H](CO)N(C)C(=O)[C@H](Cc1c[nH]c2ccccc12)NC(=O)[C@H](Cc1cnc[nH]1)NC(=O)[C@@H]1CCC(=O)N1)C(=O)N1CCC[C@H]1C(=O)NCC(N)=O)C(=O)NCCCC[C@H](NC(=O)[C@H](Cc1c[nH]c2ccccc12)NC(=O)[C@H](CC(=O)O)NC(=O)[C@H](Cc1cnc[nH]1)NC(=O)[C@H](CO)N(C)C(=O)[C@H](Cc1c[nH]c2ccccc12)NC(=O)[C@H](Cc1cnc[nH]1)NC(=O)[C@@H]1CCC(=O)N1)C(=O)N1CCC[C@H]1C(=O)NCC(N)=O)C[C@@H]3O[C@H]1C[C@H](N)[C@H](O)[C@H](C)O1
